{"source": "patent EP2961395B1", "about": "“TARGETED NANOPARTICLES” (CALIFORNIA INSTITUTE OF TECHNOLOGY, priority 2013, dated 2014)", "key": {"BT-474 xenograft tumors": {"test_system": "BT-474 xenograft tumors", "method": "Treatments began on day 1. […] All treatments were freshly prepared and given via intravenous tail vein injection. Injections were standardized at 150 µl per 20 g body weight of mice. […] Tumor sizes were recorded three times a week using caliper measurements (length x width^2/2) and health of the animals was continuously monitored. Animals were euthanized when tumor volumes exceeded 1000 mm^3. Six weeks after beginning of the treatment, animals were euthanized by CO2 asphyxiation."}, "[1]": {"assay": "pKa determination by absorbance change on titration", "type": "physicochemical", "conditions": "10^-3 M PBA in 0.1 M PBS, titrated with 1 N NaOH, absorbance at 268 nm", "method": "The pKa of the synthesized PBA compounds were found by measuring the change in absorbance of PBA as it converted from trigonal (in low pH) to tetrahedral (in high pH) conformation. To a solution of 10^-3 M PBA in 0.1 M PBS, pH 7.4 was titrated 1 N NaOH. pH was recorded and corresponding samples were removed for absorbance measurements at 268 nm. Table 2. pKa and binding constants of PBA compounds\npKa values of the modified PBAs were determined by absorbance changes due to conformational change of PBA from trigonal to tetrahedral form as the pH was increased (Table 2). […] Thus, at physiological pH, most of the PBA was present in the reactive anionic tetrahedral form. Binding constants between PBA and MAP were found by competitive binding with Alizarin Red S in 0.1 M PBS, pH 7.4."}, "MCF-7": {"test_system": "MCF-7", "assay": "Cytotoxicity assay (CellTiter 96 AQueous One) in MCF-7", "type": "cell-based", "conditions": "Homo sapiens, MCF7; MCF-7 (HER2 -); 72 h; CPT-containing items based on CPT content", "from_the_text": "(§1) Wells containing untreated cells were used as controls."}, "MDA-MB-231": {"test_system": "MDA-MB-231", "assay": "Cytotoxicity assay (CellTiter 96 AQueous One) in MDA-MB-231", "type": "cell-based", "conditions": "Homo sapiens; MDA-MB-231 (HER2 -); 72 h; CPT-containing items based on CPT content", "from_the_text": "as §1"}, "SKBR-3": {"test_system": "SKBR-3", "assay": "Cytotoxicity assay (CellTiter 96 AQueous One) in SKBR-3", "type": "cell-based", "conditions": "Homo sapiens, SK-BR-3; SKBR-3 (HER2 +); 72 h; CPT-containing items based on CPT content", "from_the_text": "as §1"}, "BT-474": {"test_system": "BT-474", "assay": "Cytotoxicity assay (CellTiter 96 AQueous One) in BT-474", "type": "cell-based", "conditions": "Homo sapiens; BT-474 (HER2 +); 72 h; CPT-containing items based on CPT content", "from_the_text": "as §1"}, "[2]": {"assay": "Plasma pharmacokinetics of free CPT in CD2F1 mice (comparison)", "method": "A DNA ladder is loaded in Lane 1. […] A DNA ladder is loaded in Lane 1. […] Free CPT injected at 10 mg/kg into CD2F1 mice is shown as comparison. (A) Plasma concentration of polymer bound CPT as a function of time. […] (A) Percent injected dose (ID) of total CPT per gram of tumor, heart, liver, spleen, kidney or lung. (B) Percentage of total CPT in each organ that is unconjugated in tumor, heart, liver, spleen, kidney and lung. (C) Total concentration of CPT in plasma."}, "[3]": {"conditions": "80 mg/kg i.v. once per week for 3 weeks"}, "[4]": {"conditions": "8 mg/kg (MAP-CPT on CPT basis) i.v. once per week for 3 weeks"}}, "note": "Like-named read-outs stand apart in the source and are kept apart here."}
{"compound": "CCc1c2c(nc3ccc(OC(=O)N4CCC(N5CCCCC5)CC4)cc13)-c1cc3c(c(=O)n1C2)COC(=O)[C@]3(O)CC", "note": "[Irinotecan]", "values": [{"measurement": "NTRD (number of treatment related death)", "setting": "BT-474 xenograft tumors; [3]", "value": 1}, {"measurement": "Nend (number of animals surviving to end of study)", "setting": "BT-474 xenograft tumors; [3]", "value": "8/7"}, {"measurement": "Neuthan (number of animals euthanized due to exceeding tumor size limit of 1000 mm^3)", "setting": "BT-474 xenograft tumors; [3]", "value": 0}, {"measurement": "Nreg to zero (number of animals with tumors regressed to zero at the end of study)", "setting": "BT-474 xenograft tumors; [3]", "value": 0}, {"measurement": "tumor inhibition compared to control group", "setting": "BT-474 xenograft tumors; [3]", "value": "non-significant tumor inhibition"}]}
{"compound": "OB(O)c1ccccc1", "note": "[PBA, phenylboronic acid]", "values": [{"measurement": "pKa", "setting": "[1]", "value": 8.8}]}
{"compound": "CC[C@@]1(O)C(=O)OCc2c1cc1n(c2=O)Cc2cc3ccccc3nc2-1", "note": "[CPT, Camptothecin]", "values": [{"measurement": "IC50", "setting": "MCF-7", "value": 300, "unit": "nM"}, {"measurement": "IC50", "setting": "MDA-MB-231", "value": 100, "unit": "nM"}, {"measurement": "IC50", "setting": "SKBR-3", "value": 30, "unit": "nM"}, {"measurement": "IC50", "setting": "BT-474", "value": 4000, "unit": "nM"}, {"measurement": "AUC", "setting": "[2]; CD2F1, mouse, in vivo, 10 mg/kg", "value": 1600, "unit": "ng·h/mL"}, {"measurement": "injected dose remaining in circulation", "setting": "[2]; after 8 h, CPT alone at 10 mg/kg", "value": 0.01, "unit": "%"}, {"measurement": "Mean tumor volume", "setting": "BT-474 xenograft tumors; [4]", "value": 808, "unit": "mm^3"}, {"measurement": "Median tumor volume", "setting": "BT-474 xenograft tumors; [4]", "value": 417, "unit": "mm^3"}, {"measurement": "NTRD (number of treatment related death)", "setting": "BT-474 xenograft tumors; [4]", "value": 4}, {"measurement": "Nend (number of animals surviving to end of study)", "setting": "BT-474 xenograft tumors; [4]", "value": "8/0"}, {"measurement": "Neuthan (number of animals euthanized due to exceeding tumor size limit of 1000 mm^3)", "setting": "BT-474 xenograft tumors; [4]", "value": 4}, {"measurement": "Nreg to zero (number of animals with tumors regressed to zero at the end of study)", "setting": "BT-474 xenograft tumors; [4]", "value": 0}, {"measurement": "tumor inhibition compared to control group", "setting": "BT-474 xenograft tumors; [4]", "value": "no tumor inhibition"}]}
